# Read-outs that look alike come from different tables or passages of the source. No end group written: not given here.
# How the values were obtained:
# [1] = tested on: severe meloidosis patients; details: human, in vivo; cited from earlier work
# THP-1 cells = assay type: cell-based, Human
# [2] = tested on: B. pseudomallei (strain KHW); test: microbe, parasite or virus in culture; details: Burkholderia pseudomallei, 24 h, read-out: MIC (breaking point)
# [3] = tested on: B. pseudomallei (strain TES); test: microbe, parasite or virus in culture; assay type: cell-based, Burkholderia pseudomallei; details: 24 h; for MIC: Burkholderia pseudomallei, read-out: MIC (breaking point)
# [4] = tested on: B. pseudomallei (strain KHW); details: 24 h
# Pseudomonas aeruginosa = assay type: cell-based
# Proteus mirabilis = assay type: cell-based
# Proteus vulgaris = assay type: cell-based
# Staphylococcus aureus = assay type: cell-based
# Enterobacter aerogenes = assay type: cell-based
# Escherichia coli = assay type: cell-based
# [5] = tested on: THP-1 cells (Human macrophage)
# 23 tested strains = details: cited from earlier work
# Burkholderia cepacia = details: 50 μg/mL; cited from earlier work
compound,measurement,setting,value
CC(C)(O/N=C(\C(=O)N[C@@H]1C(=O)N2C(C(=O)[O-])=C(C[n+]3ccccc3)CS[C@H]12)c1csc(N)n1)C(=O)O [Ceftazidime],mortality,[1],37%
same,gene expression,THP-1 cells,majority of the genes were up regulated
same,MIC,[2],125 mg/L
same,"optical density (560 nm) of bacterial growth, strain TES",[3]; 0.03125 mg/mL,0.49
same,"percentage in parentheses (susceptibility), strain TES",[3]; 0.03125 mg/mL,(33%)
same,"optical density (560 nm) of bacterial growth, strain TES",[3]; 0.0625 mg/mL,0.35
same,"percentage in parentheses (susceptibility), strain TES",[3]; 0.0625 mg/mL,(47%)
same,"optical density (560 nm) of bacterial growth, strain TES",[3]; 0.125 mg/mL,0.09
same,"optical density (560 nm) of bacterial growth, strain TES",[3]; 0.25 mg/mL,0.03
same,"percentage in parentheses (susceptibility), strain TES",[3]; 0.25 mg/mL,(86%)
same,"optical density (560 nm) of bacterial growth, strain TES",[3]; 0.5 mg/mL,0.01
same,"percentage in parentheses (susceptibility), strain TES",[3]; 0.5 mg/mL,(88%)
same,MIC,[3],125 mg/L
same,"optical density (560 nm) of bacterial growth, strain KHW",[4]; 0.03125 mg/mL,0.44
same,"percentage in parentheses (susceptibility), strain KHW",[4]; 0.03125 mg/mL,(22%)
same,"optical density (560 nm) of bacterial growth, strain KHW",[4]; 0.0625 mg/mL,0.24
same,"percentage in parentheses (susceptibility), strain KHW",[4]; 0.0625 mg/mL,(24%)
same,"optical density (560 nm) of bacterial growth, strain KHW",[4]; 0.125 mg/mL,0.04
same,"percentage in parentheses (susceptibility), strain KHW",[4]; 0.125 mg/mL,(62%)
same,"optical density (560 nm) of bacterial growth, strain KHW",[4]; 0.25 mg/mL,0.05
same,"percentage in parentheses (susceptibility), strain KHW",[4]; 0.25 mg/mL,(61%)
same,"optical density (560 nm) of bacterial growth, strain KHW",[4]; 0.5 mg/mL,0.08
same,"percentage in parentheses (susceptibility), strain KHW",[4]; 0.5 mg/mL,(58%)
O=C(N[C@H](CO)[C@H](O)c1ccc([N+](=O)[O-])cc1)C(Cl)Cl [Chloramphenicol],mortality,[1],74%
same,"Size of inhibition zone, Pa (−)",Pseudomonas aeruginosa,25 ± 0.70 mm
same,"Size of inhibition zone, Pm (−)",Proteus mirabilis,33 ± 2.34 mm
same,"Size of inhibition zone, Pv (−)",Proteus vulgaris,24.6 ± 0.86 mm
same,"Size of inhibition zone, Sa (+)",Staphylococcus aureus,35.1 ± 1.26 mm
same,MIC,[2],125 mg/L
same,"optical density (560 nm) of bacterial growth, strain TES",[3]; 0.03125 mg/mL,0.37
same,"percentage in parentheses (susceptibility), strain TES",[3]; 0.03125 mg/mL,(38%)
same,"optical density (560 nm) of bacterial growth, strain TES",[3]; 0.0625 mg/mL,0.34
same,"percentage in parentheses (susceptibility), strain TES",[3]; 0.0625 mg/mL,(41%)
same,"optical density (560 nm) of bacterial growth, strain TES",[3]; 0.125 mg/mL,0.07
same,"optical density (560 nm) of bacterial growth, strain TES",[3]; 0.25 mg/mL,0.04
same,"percentage in parentheses (susceptibility), strain TES",[3]; 0.25 mg/mL,(73%)
same,"optical density (560 nm) of bacterial growth, strain TES",[3]; 0.5 mg/mL,0.026
same,"percentage in parentheses (susceptibility), strain TES",[3]; 0.5 mg/mL,(74%)
same,MIC,[3],125 mg/L
same,"Size of inhibition zone, Ea (−)",Enterobacter aerogenes,27.8 ± 1.09 mm
same,"optical density (560 nm) of bacterial growth, strain KHW",[4]; 0.03125 mg/mL,0.51
same,"percentage in parentheses (susceptibility), strain KHW",[4]; 0.03125 mg/mL,(1%)
same,"optical density (560 nm) of bacterial growth, strain KHW",[4]; 0.0625 mg/mL,0.42
same,"percentage in parentheses (susceptibility), strain KHW",[4]; 0.0625 mg/mL,(10%)
same,"optical density (560 nm) of bacterial growth, strain KHW",[4]; 0.125 mg/mL,0.07
same,"percentage in parentheses (susceptibility), strain KHW",[4]; 0.125 mg/mL,(60%)
same,"optical density (560 nm) of bacterial growth, strain KHW",[4]; 0.25 mg/mL,0.03
same,"percentage in parentheses (susceptibility), strain KHW",[4]; 0.25 mg/mL,(64%)
same,"optical density (560 nm) of bacterial growth, strain KHW",[4]; 0.5 mg/mL,0.01
same,"percentage in parentheses (susceptibility), strain KHW",[4]; 0.5 mg/mL,(68%)
same,"Size of inhibition zone, Ec (−)",Escherichia coli,31.8 ± 1.64 mm
[H]/N=C(/N)N[C@H]1[C@H](O)[C@@H](O)[C@H](O[C@@H]2O[C@@H](C)[C@](O)(C=O)[C@H]2O[C@@H]2O[C@@H](CO)[C@H](O)[C@@H](O)[C@@H]2NC)[C@@H](N/C(N)=N\[H])[C@@H]1O [Streptomycin],"Size of inhibition zone, Pa (−)",Pseudomonas aeruginosa,16.5 ± 0.50 mm
same,"Size of inhibition zone, Pm (−)",Proteus mirabilis,27.8 ± 1.09 mm
same,"Size of inhibition zone, Pv (−)",Proteus vulgaris,18.2 ± 0.83 mm
same,"Size of inhibition zone, Sa (+)",Staphylococcus aureus,30.3 ± 0.77 mm
same,"Size of inhibition zone, Ea (−)",Enterobacter aerogenes,15.7 ± 0.44 mm
same,"Size of inhibition zone, Ec (−)",Escherichia coli,29.4 ± 0.89 mm
CC[C@H](C)[C@H](NC(=O)CN)C(=O)NCC(=O)N[C@@H](C)C(=O)N[C@H](C(=O)N[C@@H](CC(C)C)C(=O)N[C@@H](CCCCN)C(=O)N[C@H](C(=O)N[C@@H](CC(C)C)C(=O)N[C@H](C(=O)N[C@H](C(=O)NCC(=O)N[C@@H](CC(C)C)C(=O)N1CCC[C@H]1C(=O)N[C@@H](C)C(=O)N[C@@H](CC(C)C)C(=O)N[C@H](C(=O)N[C@@H](CO)C(=O)N[C@@H](Cc1c[nH]c2ccccc12)C(=O)N[C@H](C(=O)N[C@@H](CCCCN)C(=O)N[C@@H](CCCNC(=N)N)C(=O)N[C@@H](CCCCN)C(=O)N[C@@H](CCCNC(=N)N)C(=O)N[C@@H](CCC(N)=O)C(=O)N[C@@H](CCC(N)=O)C(N)=O)[C@@H](C)CC)[C@@H](C)CC)[C@@H](C)O)[C@@H](C)O)C(C)C)C(C)C [melittin],MIC (breaking point),[4],250 mg/L
Penicillin,"Size of inhibition zone, Pa (−)",Pseudomonas aeruginosa,16.6 ± 0.89 mm
same,"Size of inhibition zone, Pm (−)",Proteus mirabilis,27.8 ± 1.10 mm
same,"Size of inhibition zone, Pv (−)",Proteus vulgaris,16.7 ± 0.98 mm
same,"Size of inhibition zone, Sa (+)",Staphylococcus aureus,17.4 ± 0.89 mm
same,"Size of inhibition zone, Ea (−)",Enterobacter aerogenes,18.3 ± 0.85 mm
same,"Size of inhibition zone, Ec (−)",Escherichia coli,15.2 ± 0.84 mm
Triton X-100,hemolytic activity,human red blood cells,100%
same,cell death,[5],90%
"hBD-3 (GIINTLQKYYCRVRGGRCAVLSCLPKEEQIGKCSTRGRKCCRRKK; ends and bridges not checked; cysteine pairing not given here; UniProt P81534 23-67, looked up)",MBCs,23 tested strains,> 100 µg/mL
same,effect,Burkholderia cepacia,did not show any effect
